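Following 48 hours of exposure in 96-well plates, responses at five concentrations were used to interpolate endpoints linearly. GI50 = concentration required for 50% inhibition of growth. TGI: concentration producing complete growth inhibition.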
How the values were obtained:
Experiment in all cases: DTP human tumour cell line panel, 48 h
[1] = tested on: 786-0 renal
[2] = tested on: A498 renal
[3] = tested on: A549 NSCLC
[4] = tested on: ACHN renal
[5] = tested on: BT-549 breast
[6] = tested on: CAKI-1 renal
[7] = tested on: CCRF-CEM leukemia
[8] = tested on: COLO 205 colon
[9] = tested on: DU-145 prostate
[10] = tested on: EKVX NSCLC
[11] = tested on: HCC-2998 colon
[12] = tested on: HCT-116 colon
[13] = tested on: HCT-15 colon
[14] = tested on: HL-60(TB) leukemia
[15] = tested on: HOP-62 NSCLC
[16] = tested on: HOP-92 NSCLC
[17] = tested on: HS 578T breast
[18] = tested on: HT29 colon
[19] = tested on: IGROV1 ovarian
[20] = tested on: K-562 leukemia
[21] = tested on: KM12 colon
[22] = tested on: LOX IMVI melanoma
[23] = tested on: M14 melanoma
[24] = tested on: MCF7 breast
[25] = tested on: MDA-MB-231 breast
[26] = tested on: MDA-MB-435
[27] = tested on: MOLT-4 leukemia
[28] = tested on: NCI-H226 lung
[29] = tested on: NCI-H23 lung
[30] = tested on: NCI-H460 lung
[31] = tested on: NCI-H522 lung
[32] = tested on: NCI/ADR-RES ovarian
[33] = tested on: OVCAR-3 ovarian
[34] = tested on: OVCAR-4 ovarian
[35] = tested on: OVCAR-5 ovarian
[36] = tested on: OVCAR-8 ovarian
[37] = tested on: PC-3 prostate
[38] = tested on: RPMI-8226 leukemia
[39] = tested on: RXF 393 renal
[40] = tested on: SF-268 CNS
[41] = tested on: SF-295 CNS
[42] = tested on: SF-539 CNS
[43] = tested on: SK-MEL-2 melanoma
[44] = tested on: SK-MEL-28 melanoma
[45] = tested on: SK-MEL-5 melanoma
[46] = tested on: SK-OV-3 ovarian
[47] = tested on: SN12C renal
[48] = tested on: SNB-19 CNS
[49] = tested on: SNB-75 CNS
[50] = tested on: SR leukemia
[51] = tested on: SW-620 colon
[52] = tested on: T-47D breast
[53] = tested on: TK-10 renal
[54] = tested on: U251 CNS
[55] = tested on: UACC-257 melanoma
[56] = tested on: UACC-62 melanoma
[57] = tested on: UO-31 renal
[58] = tested on: MALME-3M melanoma

CC1=NN(c2nc(N)nc(CSCc3nc(N)nc(N(C)C)n3)n2)C(C)(C)C1
TGI [1]: > 100000 nM | TGI [2]: > 100000 nM | TGI [3]: > 100000 nM | TGI [4]: > 100000 nM | TGI [5]: > 100000 nM | TGI [6]: > 100000 nM | TGI [7]: > 100000 nM | TGI [8]: > 100000 nM | TGI [9]: > 100000 nM | TGI [10]: > 100000 nM | TGI [11]: > 100000 nM | TGI [12]: > 100000 nM | TGI [13]: > 100000 nM | TGI [14]: > 100000 nM | TGI [15]: > 100000 nM | TGI [16]: > 100000 nM | TGI [17]: > 100000 nM | TGI [18]: > 100000 nM | TGI [19]: > 100000 nM | TGI [20]: 32100 nM | TGI [21]: > 100000 nM | TGI [22]: > 100000 nM | TGI [23]: > 100000 nM | TGI [24]: > 100000 nM | TGI [25]: > 100000 nM | TGI [26]: > 100000 nM | TGI [27]: > 100000 nM | TGI [28]: > 100000 nM | TGI [29]: > 100000 nM | TGI [30]: > 100000 nM | TGI [31]: > 100000 nM | TGI [32]: > 100000 nM | TGI [33]: > 100000 nM | TGI [34]: > 100000 nM | TGI [35]: > 100000 nM | TGI [36]: > 100000 nM | TGI [37]: > 100000 nM | TGI [38]: > 100000 nM | TGI [39]: > 100000 nM | TGI [40]: > 100000 nM | TGI [41]: > 100000 nM | TGI [42]: > 100000 nM | TGI [43]: > 100000 nM | TGI [44]: > 100000 nM | TGI [45]: > 100000 nM | TGI [46]: > 100000 nM | TGI [47]: > 100000 nM | TGI [48]: > 100000 nM | TGI [49]: > 100000 nM | TGI [50]: > 100000 nM | TGI [51]: > 100000 nM | TGI [52]: > 100000 nM | TGI [53]: > 100000 nM | TGI [54]: > 100000 nM | TGI [55]: > 100000 nM | TGI [56]: > 100000 nM | TGI [57]: > 100000 nM

O=C(CC12CC3CC(CC(C3)C1)C2)NCCOCCOCCOCCNC(=O)c1cc2c(o1)C(=O)c1ccccc1C2=O
GI50 [1]: 2550 nM | TGI [1]: 8870 nM | GI50 [2]: 1590 nM | TGI [2]: 3120 nM | GI50 [3]: 331 nM | TGI [3]: 1180 nM | GI50 [4]: 1510 nM | TGI [4]: 3120 nM | GI50 [5]: 1330 nM | TGI [5]: 2680 nM | GI50 [6]: 1930 nM | TGI [6]: 5740 nM | GI50 [7]: 2720 nM | TGI [7]: 20700 nM | GI50 [8]: 1630 nM | TGI [8]: 3330 nM | GI50 [9]: 407 nM | TGI [9]: 1280 nM | GI50 [10]: 2230 nM | TGI [10]: 5290 nM | GI50 [11]: 1890 nM | TGI [11]: 3600 nM | GI50 [12]: 1870 nM | TGI [12]: 6330 nM | GI50 [13]: 1430 nM | TGI [13]: 3310 nM | GI50 [14]: 1400 nM | TGI [14]: 4980 nM | GI50 [15]: 1890 nM | TGI [15]: 3330 nM | GI50 [16]: 2450 nM | TGI [16]: 7300 nM | GI50 [17]: 1990 nM | TGI [17]: 6590 nM | GI50 [18]: 2460 nM | TGI [18]: 6360 nM | GI50 [19]: 1660 nM | TGI [19]: 4600 nM | GI50 [20]: 1320 nM | TGI [20]: 5320 nM | GI50 [21]: 2870 nM | TGI [21]: 10300 nM | GI50 [22]: 712 nM | TGI [22]: 2400 nM | GI50 [23]: 222 nM | TGI [23]: 491 nM | GI50 [58]: 157 nM | TGI [58]: 328 nM | GI50 [24]: 808 nM | TGI [24]: 2730 nM | GI50 [25]: 2430 nM | TGI [25]: 9810 nM | GI50 [26]: 200 nM | TGI [26]: 392 nM | GI50 [27]: 2020 nM | TGI [27]: 6220 nM | GI50 [28]: 1750 nM | TGI [28]: 4000 nM | GI50 [29]: 173 nM | TGI [29]: 1090 nM | GI50 [30]: 398 nM | TGI [30]: 1440 nM | GI50 [31]: 1540 nM | TGI [31]: 3510 nM | GI50 [32]: 2470 nM | TGI [32]: 7650 nM | GI50 [33]: 395 nM | TGI [33]: 1790 nM | GI50 [34]: 1120 nM | TGI [34]: 2330 nM | GI50 [35]: 1750 nM | TGI [35]: 3170 nM | GI50 [36]: 1150 nM | TGI [36]: 10600 nM | GI50 [37]: 1790 nM | TGI [37]: 16100 nM | GI50 [38]: 1570 nM | TGI [38]: 4610 nM | GI50 [39]: 1550 nM | TGI [39]: 2950 nM | GI50 [40]: 2170 nM | TGI [40]: 5590 nM | GI50 [41]: 1480 nM | TGI [41]: 2850 nM | GI50 [42]: 1440 nM | TGI [42]: 2780 nM | GI50 [43]: 1640 nM | TGI [43]: 3930 nM | GI50 [44]: 1700 nM | TGI [44]: 3270 nM | GI50 [45]: 181 nM | TGI [45]: 343 nM | GI50 [46]: 2550 nM | TGI [46]: 6060 nM | GI50 [47]: 1030 nM | TGI [47]: 2260 nM | GI50 [48]: 1320 nM | TGI [48]: 7630 nM | GI50 [49]: 2020 nM | TGI [49]: 3510 nM | GI50 [50]: 1670 nM | TGI [50]: 8760 nM | GI50 [51]: 1680 nM | TGI [51]: 4610 nM | GI50 [52]: 1740 nM | TGI [52]: 5860 nM | GI50 [53]: 3140 nM | TGI [53]: 5780 nM | GI50 [54]: 1530 nM | TGI [54]: 3090 nM | GI50 [55]: 1220 nM | TGI [55]: 2520 nM | GI50 [56]: 343 nM | TGI [56]: 1190 nM | GI50 [57]: 1510 nM | TGI [57]: 3130 nM
